# Source: US8962553B2, “Method of treating a diabetic subject having a microvascular impairment disorder by a pegylated C-peptide” (Cebix Ab, priority 2011, dated 2015)
# Read-outs that look alike come from different tables or passages of the source.
# Key:
# [1] = in vivo
# [2] = Single-dose pharmacokinetic study of C-peptide in patients with type 1 diabetes; details: human, in vivo; for Vd: 0.45 mg (150 nmol) i.v., mean ± SD
# Protocol: (§1) In a single-dose pharmacokinetic study of C-peptide in patients with type 1 diabetes, recombinant human C-peptide was administered subcutaneously at doses of 150 nmol, 600 nmol, 1800 nmol, and intravenously at a dose of 150 nmol with a wash-out period of at least three days.
# [3] = cited from earlier work
# clinical = details: human, in vivo
# Protocol: as §1
# [4] = STZ rat Study #1: animal survival and clinical observations; type: in vivo; details: Group 5: 1.5 mg/kg over 24 h by pump, N 10, STZ rats, end of study
# Protocol: Male Sprague Dawley rats (Harlan Laboratories, Inc.; Indianapolis, Ind.) weighing approximately 400 g had type 1 diabetes induced on Day 1 by intravenous administration of clinical-grade STZ (Zanosar®; 50 mg/kg in Study #1 and 33 mg/kg in Study #2). On Day 3 (Study #1) or Day 4 (Study #2), blood was collected and K3EDTA plasma was analyzed for endogenous C-peptide levels and animals with C-peptide <0.4 nM were randomized on Day 7 (Study #1) or Day 9 (Study #2) taking into account body weight and blood glucose (criterion in the range 400-600 mg/dL). Randomization was done using Covance's BRAT system.
# Insulin (Lantus®, long-acting insulin glargine) was used in both studies and administered subcutaneously in the evening before the start of the 12-hour dark cycle in the animal room (time period when most food consumption takes place). In Study #1, rats were initiated on insulin after there were a number of animal deaths starting early in the study (3 days into the treatment period). All animals were receiving 3 U/day of insulin by the end of the study. […] Additionally to limit dehydration when needed throughout the studies, warm sterile saline (volume determined by veterinarian) was administered to animals, and in particular in Study #2, to animals 24 hours prior to undergoing surgery for pump implantation. […]
# [5] = in vivo; cited from earlier work
molecule,measurement,setting,value
CC(C)C[C@H](NC(=O)[C@H](C)NC(=O)[C@H](CC(C)C)NC(=O)[C@@H]1CCCN1C(=O)[C@H](CCC(N)=O)NC(=O)[C@H](CC(C)C)NC(=O)[C@H](CO)NC(=O)CNC(=O)[C@H](C)NC(=O)CNC(=O)[C@@H]1CCCN1C(=O)CNC(=O)CNC(=O)CNC(=O)[C@H](CC(C)C)NC(=O)[C@H](CCC(=O)O)NC(=O)[C@@H](NC(=O)[C@H](CCC(N)=O)NC(=O)CNC(=O)[C@@H](NC(=O)[C@H](CCC(N)=O)NC(=O)[C@H](CC(C)C)NC(=O)[C@H](CC(=O)O)NC(=O)[C@H](CCC(=O)O)NC(=O)[C@H](C)NC(=O)[C@@H](N)CCC(=O)O)C(C)C)C(C)C)C(=O)N[C@@H](CCC(=O)O)C(=O)NCC(=O)N[C@@H](CO)C(=O)N[C@@H](CC(C)C)C(=O)N[C@@H](CCC(N)=O)C(=O)O [C-peptide],dose required to obtain a plasma concentration of 1-3 nM,[1],10.5 mg/week
same,dose required to obtain a plasma concentration of 1-3 nM for most of the day,[1],1.5 mg/day
same,Cmax,"[2]; iv, 0.45 mg",30.8 ± 6.57 nM
same,clearance,"[2]; iv, 0.45 mg",250 ± 46 mL/min
same,Vd,"[2]; iv, 0.45 mg, Vss",10.9 ± 1.97 L
same,Vd,"[2]; iv, 0.45 mg, Vz",25.6 ± 7.65 L
same,Cmax,"[2]; sc, 0.45 mg",3.7 ± 1.04 nM
same,Tmax,"[2]; sc, 0.45 mg",0.833 h
same,bioavailability,"[2]; sc, 0.45 mg",86.9 ± 12.1%
same,Cmax,"[2]; sc, 1.8 mg",14.3 ± 3.22 nM
same,Tmax,"[2]; sc, 1.8 mg",1.08 h
same,Cmax,"[2]; sc, 5.4 mg",40.3 ± 7.03 nM
same,Tmax,"[2]; sc, 5.4 mg",1.22 h
same,half-life,"[3]; healthy subjects, range of 24.9-45.3 minutes",0.558 h
same,half-life,"[3]; subjects with type 1 diabetes, range of 39.4-48.5 minutes",0.708 h
same,half-life,"clinical; iv, 0.45 mg",1.13 h
same,CL/F,"clinical; sc, 0.45 mg",290 ± 67 mL/min
same,Vd/F,"clinical; sc, 0.45 mg",28.3 ± 8.96 L
same,half-life,"clinical; sc, 0.45 mg",1.13 ± 0.35 h
same,CL/F,"clinical; sc, 1.8 mg",270 ± 47 mL/min
same,Vd/F,"clinical; sc, 1.8 mg",23.4 ± 5.27 L
same,half-life,"clinical; sc, 1.8 mg",1.02 h
same,CL/F,"clinical; sc, 5.4 mg",250 ± 41 mL/min
same,Vd/F,"clinical; sc, 5.4 mg",24.4 ± 5.47 L
same,half-life,"clinical; sc, 5.4 mg",1.13 h
same,Number of Surviving Animals,[4],1
Glargine insulin,duration of activity,[5],24 h
same,peak time of effect,[5],no peak effect
Regular insulin: short-acting insulin preparation,onset of action,[5],30 to 60 min
